Assays:
[1] = system: Aspergillus ochraceus 11 alpha hydroxylase; assay: HPLC assay of conversion of androstenedione to 11α-hydroxyandrostenedione by subcellular fractions of baculovirus-infected Sf9 cells co-expressing 11 alpha hydroxylase and human oxidoreductase; format: biochemical; details: 11 alpha hydroxylase co-expressed in Sf-9 insect cells with human oxidoreductase
Experimental: Microsomal and mitochondrial subcellular fractions were prepared from insect cells co-infected with recombinant baculoviruses expressing recombinant Aspergillus ochraceus 11 alpha hydroxylase and human oxidoreductase cloned from HepG2 cell RNA. The subcellular fractions were incubated with 250 μM androstenedione (AD) in the presence of an NADPH-generating system for 120 minutes, and the resulting products were separated by HPLC and monitored by ultraviolet detection at 247 nm. Hydroxlase activity was found in the microsomal fraction, as expected, but also appeared in the mitochondrial fraction. […] Panel A illustrates a reaction carried out using enzyme prepared from a mitochondrial fraction. The peak in panel A that elutes after AD appears to be testosterone. When a microsomal fraction was used, almost as much AD was converted to 11 alpha hydroxy AD, but relatively more testosterone was also produced. Panel B illustrates the same reaction carried out for 120 minutes without a source of enzyme. Panel C illustrates an HPLC tracing with 11α-hydroxyandrostenedione standard added to incubation buffer.
Sf9 cells were co-infected with virus particles that contained the steroid 11 alpha hydroxylase cDNA and a separate virus containing a human NADPH P450-oxidoreductase. Both viruses were added at a multiplicity of infection (MOI) ratio of 0.1:0.01 (11 aOH to oxr). […]

[2] = system: Aspergillus ochraceus spores; assay: 11 α-hydroxylation of canrenone by A. ochraceus spores, media extract analysed by HPLC; format: cell-based; details: spores incubated approximately 26 hours at 30° C. with 0.1 g canrenone in 400 ml; data not shown
Experimental: Aspergillus ochraceus ATCC 18500 stock culture (50 ul) was grown for 3-4 days on plates containing sporulation medium: 50 g/L molasses, 5 g/L cornsteep liquid, 5 g/L KH2PO4, 25 g/L NaCl, 25 g/L glucose, 20 g/L agar, and 0.4 g/L progesterone, pH 5.8. Progesterone was included in the media to induce the steroid 11 α-hydroxylase. Spores were scraped from the plates into 5 to 7 ml saline, washed in saline, collected by centrifugation, and suspended in saline containing 15% glycerol. The spores were frozen on dry ice and stored at −80° C. Approximately 0.8 g spores were incubated at 30° C. in a 1 liter flask containing 400 ml 1% glucose, 50 mM KH2PO4 and 0.1 g canrenone, pH 7.0. This treatment prior to spore disruption has three benefits: (1) to induce the steroid 11 α-hydroxylase by incubation with canrenone; (2) to determine whether the spores were catalyzing the 11 α-hydroxylation of canrenone; (3) and to soften the spore wall. After approximately 26 hours of incubating with shaking at 30° C. to provide better aeration, the spores were collected by centrifugation. […]
Approximately 160 ml of media from the spore induction was extracted three times with 70 ml ethyl acetate to collect the steroid substrate and products. […] The residue was dissolved in 8 ml methanol so that the final concentration of canrenone was approximately 15 mM (assuming quantitative recovery). […]

| SMILES | conversion of the steroid substrate to 11 alpha-hydroxy-AD as determined by HPLC analysis [1] | 11 α-hydroxylation of canrenone, HPLC of media extract monitored at 254 nm [2] |
| --- | --- | --- |
| C[C@]12CCC(=O)C=C1CC[C@@H]1[C@@H]2CC[C@]2(C)C(=O)CC[C@@H]12 [AD, Androst-4-ene-3,17-dione(8CI,9CI)] | successfully catalyzed the conversion | – |
| C[C@]12CCC(=O)C=C1C=C[C@@H]1C2CC[C@@]2(C)C1CC[C@@]21CCC(=O)O1 (stereo partly drawn) [canrenone, Pregna-4,6-diene-21-carboxylic acid,17-hydroxy-3-oxo-,γ-lactone, (17α)-(9CI)] | – | exhibited a component with the same retention time as the 11 α-hydroxy canrenone standard |

Reference: patent US7238507B2, “Aspergillus ochraceus 11 alpha hydroxylase and oxidoreductase” (priority 2000, dated 2007)
